How the values were obtained:
[1] = tested on: SH-SY5Y human neuroblastoma cells; assay: ATP levels (Luminescent ATP Detection Kit); type: cell-based; conditions: 0.001–10 µM; for ATP levels at 6 h, in words: 6 h incubation; for ATP levels at 24 h, in words: 24 h incubation
Experimental: ATP levels were determined with the Luminescent ATP Detection Kit (Abcam), following manufacturer´s instructions. Briefly, human neuroblastoma cells were cultured in 96-well plates at 5 × 10^4 cells per well. Cells were treated with compounds as described above during 6 and 24 h, Then, cells were lysed and 50 µL of substrate solution were added to each well. The plate was incubated for 5 min, and the luminescence was measured in a plate reader. Rot at 1 µM was used as positive control.

[2] = tested on: SH-SY5Y human neuroblastoma cells; assay: LDH cytotoxicity assay (cell viability); type: cell-based; conditions: 24 h, 0.001–10 µM
Experimental: (§1) SH-SY5Y human neuroblastoma cell line was obtained from American Type Culture Collection (ATCC), number CRL2266. Cells were cultured in Dulbecco´s modified Eagle´s medium: Nutrient Mix F-12 (DMEM/F-12) with 10% fetal bovine serum (FBS), 1% glutamax, 100 U/mL penicillin and 100 µg/mL streptomycin. Cells were maintained at 37 °C in a humidified atmosphere of 5% CO2 and 95% air and dissociated weekly using 0.05% trypsin/EDTA. All the reagents were obtained from Thermo Fischer Scientific.
Cell viability was assessed with the LDH test. Cells were seeded in 96-well plates and exposed to different compound concentrations (0.001–10 µM). Cells were incubated with compounds at 37 °C in humidified 5% CO2/95% air atmosphere for 24 h. Quillaja bark saponin was used as cellular death control. Then, cell medium was collected and LDH release was evaluated. Pierce^TM LDH-Cytotoxicity Assay Kit (Thermo Fisher Scientific) was used for LDH determination. Absorbance was measured at 490 nm to determine LDH release to the medium. Experiments were carried out in triplicate at least three independent times.

[3] = tested on: SH-SY5Y human neuroblastoma cells; assay: Reactive oxygen species levels (carboxy-H2DCFDA); type: cell-based; conditions: 24 h, 0.001–10 µM
Experimental: ROS production was assessed with the fluorescence dye carboxy-H2DCFDA (5-(and-6)-carboxy-2′,7′-dichlorodihydrofluorescein diacetate). SH-SY5Y cells were seeded in 96-well plates and allowed to grow for 24 h. Then, cells were treated with laxaphycins (0.001–10 µM) for 24 h and ROS levels were measured. SH-SY5Y cells were washed twice with serum-free medium and loaded with 20 µM carboxy-H2DCFDA. Next, the plate was incubated for 1 h at 37 °C. After this time, phosphate buffered saline (PBS) was added to each well during 30 min. The fluorescence was read at 495 nm excitation and 527 nm emission. Experiments were carried out at least three times.

[4] = tested on: SH-SY5Y human neuroblastoma cells; assay: Mitochondrial membrane potential (TMRM dye); type: cell-based; conditions: 24 h, 0.001–10 µM
Experimental: ∆Ψm was evaluated with TMRM assay as previously described. SH-SY5Y cells were seeded in 96-well plates at 5 × 10^4 cells per well. After 24 h, cells were treated with compounds (0.001–10 µM) for 24 h. Next, cells were washed twice with saline solution and incubated with 1 µM TMRM for 30 min. Then human neuroblastoma cells were solubilized with 50% DMSO–50% water. Fluorescence values were measured at 535 nm excitation, 590 nm emission with a plate reader. At least three independent replicates were performed in triplicate.

p70 S6 kinase = assay: Western blot, p70 S6 kinase activation (phosphorylated/total); type: cell-based, human; conditions: SH-SY5Y cells, 24 h; one range given for the three compounds together
Experimental: (§2) SH-SY5Y cells were seeded in 12-well plates and treated with laxaphycins for 24 h. Next, cells were washed with PBS and lysis buffer (50mM Tris HCl, 150 mM NaCl, 1mM EDTA and 1% Triton x-100, supplemented with a complete phosphatase/protease inhibitor cocktail) was added to each well. Cells were scrapped, sonicated and centrifuged at 13,000 rpm at 4 °C for 20 min.
(§3) In both cases, the supernatant was collected as the cytosolic fraction and quantified with the Bradford method. Samples containing 15 µg were used for electrophoresis, resolved in 4–20% sodium dodecyl sulphate polyacrylamide gel (Biorad, Madrid, Spain). Proteins were transferred to PVDF membranes (Merck Millipore) with a Trans-Blot® semi-dry transfer cell (Biorad). Membrane blocking and antibody incubation was performed in Snap i.d. system (Merck Millipore). Protein bands were detected with Supersignal West Pico Luminiscent Substrate and Supersignal West Femto Maximum Sensitivity Substrate (Thermo Fisher Scientific). Chemiluminiscence was determined with Diversity GeneSnap system and software (Syngene). LC3 II/I was detected with the primary antibody anti-LC3 II/I (1:1000, Abcam), the primary antibody anti-pmTOR (Ser2448) (1:1000, Merck Millipore) was used to recognize phospho-mTOR and the total levels of the kinase were determined with anti-mTOR antibody (1:10000, Abcam), beclin-1 was detected with anti-beclin-1 primary antibody (1:1000, Merck Millipore), p62 was quantified with anti-p62 antibody (1:1000, Merck Millipore), anti-phospho-p70 S6 kinase (Thr389) (1:1000, Merck Millipore) was used to detect phospho- p70 and the total levels were quantified using anti-p70 S6 kinase antibody (1:1000, Merck Millipore), anti-phospho-AMPK (Thr172) (1:500, Merck Millipore) was used to recognize the phosphorylated state of the kinase, and the total expression of the enzyme was detected with anti-AMPK antibody (1:500, Merck Millipore). Protein levels were normalized using β-Actin (1:20,000, Millipore). Baf A1 (0.001 µM), Rap (0.1 µM) and Comp C (1 µM) were used as controls for autophagic flux measurements. […]

beclin 1 = assay: Western blot, beclin 1 expression; type: cell-based, human; conditions: SH-SY5Y cells, 24 h; Rap 0.1 µM
Experimental: as §2
In both cases, the supernatant was collected as the cytosolic fraction and quantified with the Bradford method. Samples containing 15 µg were used for electrophoresis, resolved in 4–20% sodium dodecyl sulphate polyacrylamide gel (Biorad, Madrid, Spain). Proteins were transferred to PVDF membranes (Merck Millipore) with a Trans-Blot® semi-dry transfer cell (Biorad). Membrane blocking and antibody incubation was performed in Snap i.d. system (Merck Millipore). Protein bands were detected with Supersignal West Pico Luminiscent Substrate and Supersignal West Femto Maximum Sensitivity Substrate (Thermo Fisher Scientific). Chemiluminiscence was determined with Diversity GeneSnap system and software (Syngene). LC3 II/I was detected with the primary antibody anti-LC3 II/I (1:1000, Abcam), the primary antibody anti-pmTOR (Ser2448) (1:1000, Merck Millipore) was used to recognize phospho-mTOR and the total levels of the kinase were determined with anti-mTOR antibody (1:10000, Abcam), beclin-1 was detected with anti-beclin-1 primary antibody (1:1000, Merck Millipore), p62 was quantified with anti-p62 antibody (1:1000, Merck Millipore), anti-phospho-p70 S6 kinase (Thr389) (1:1000, Merck Millipore) was used to detect phospho- p70 and the total levels were quantified using anti-p70 S6 kinase antibody (1:1000, Merck Millipore), anti-phospho-AMPK (Thr172) (1:500, Merck Millipore) was used to recognize the phosphorylated state of the kinase, and the total expression of the enzyme was detected with anti-AMPK antibody (1:500, Merck Millipore). Protein levels were normalized using β-Actin (1:20,000, Millipore). Baf A1 (0.001 µM), Rap (0.1 µM) and Comp C (1 µM) were used as controls for autophagic flux measurements. All the experiments were performed at least three times in duplicate.

[5] = tested on: SH-SY5Y human neuroblastoma cells; assay: MTT cell metabolic activity assay; type: cell-based; conditions: 24 h, 0.001–10 µM
Experimental: as §1
The effect of laxaphycins on cell metabolic activity was evaluated by MTT (3-(4, 5-dimethyl thiazol-2-yl)-2, 5-diphenyl tetrazolium bromide) assay. SH-SY5Y cells were cultured in 96-well plates and treated with compounds at concentrations ranging from 0.001 to 10 µM for 24 h. Next, cells were rinsed three times and incubated for 1 h with MTT (500 µg/mL) dissolved in saline buffer. MTT excess was washed and cells were disaggregated with 5% sodium dodecyl sulfate. Absorbance of the colored formazan salt was measured at 595 nm in a spectrophotometer plate reader. Cell death control signal was subtracted from the other data.

AMPK = assay: Western blot, AMPK activation (phosphorylated/total); type: cell-based, human; conditions: SH-SY5Y cells, 24 h; Comp C 1 µM
Experimental: as §2
(§4) In both cases, the supernatant was collected as the cytosolic fraction and quantified with the Bradford method. Samples containing 15 µg were used for electrophoresis, resolved in 4–20% sodium dodecyl sulphate polyacrylamide gel (Biorad, Madrid, Spain). Proteins were transferred to PVDF membranes (Merck Millipore) with a Trans-Blot® semi-dry transfer cell (Biorad). Membrane blocking and antibody incubation was performed in Snap i.d. system (Merck Millipore). Protein bands were detected with Supersignal West Pico Luminiscent Substrate and Supersignal West Femto Maximum Sensitivity Substrate (Thermo Fisher Scientific). Chemiluminiscence was determined with Diversity GeneSnap system and software (Syngene). […]

[6] = tested on: SH-SY5Y human neuroblastoma cells; assay: Annexin V-FITC / propidium iodide flow cytometry; type: cell-based; conditions: 24 h, 1 at 0.3 µM, 2 at 0.15 µM, STS at 0.01 µM, percentage of total cells, mean ± SEM of three experiments
Experimental: The Annexin V-FITC Apoptosis Detection Kit was used to determine the cell death produced by compounds as previously described. SH-SY5Y cells were seeded in 12-well plates at 1 × 10^6 per well and incubated for 24 h with laxaphycins. Then, cells were washed with PBS and resuspended in Annexin binding buffer containing Annexin V-FITC and PI. Cells were incubated for 15 min at room temperature, resuspended in PBS and filtered. The fluorescence was determined by flow cytometry using the ImageStreamMKII (Amnis Corporation, Luminex Corp, Austin, TX, USA). 10,000 events were analyzed with IDEAS Application 6.0 software (Amnis Corporation, Luminex Corp, Austin, TX, USA). STS (Sigma Aldrich) at 0.01 µM was used as control in this assay.

caspase 3 = assay: Caspase 3 activity in cell lysates (EnzCheck kit); type: cell-based, human; conditions: SH-SY5Y cells, 24 h; STS 0.01 µM; percentage of control cells, mean ± SEM
Experimental: The detection of caspase 3 activity was carried out with the EnzCheck® Caspase-3 Assay Kit. Neuroblastoma cells were cultured in 12-well plates at 1 × 10^6 cells per well and treated with compounds. After 24 h, cells were lysed and an aliquot was collected to quantify protein concentration by the Bradford method. Then, the assay was performed following manufacturer’s instructions. Briefly, 50 µL of each sample were mixed with equal volume of Z-DEVD-AMC substrate and incubated for 30 min at room temperature. Then, fluorescence at 342 nm excitation and 441 nm emission was measured. Caspase 3 activity data were corrected by protein concentration values. STS (0.01 µM) was used as positive control.

LC3 = assay: Western blot, LC3II/I ratio; type: cell-based, human; conditions: SH-SY5Y cells, 24 h; Baf A1 0.001 µM, Rap 0.1 µM
Experimental: as §2, §4

mTOR = assay: Western blot, mTOR activation (phosphorylated/total); type: cell-based, human; conditions: SH-SY5Y cells, 24 h; Rap 0.1 µM
Experimental: as §2, §3

Molecule	ATP levels at 6 h, in words [1]	Cytotoxicity / cell viability (LDH test), in words [2]	ROS levels (carboxy-H2DCFDA), in words [3]	Mitochondrial membrane potential (∆Ψm, TMRM), in words [4]	Beclin 1 expression, in words (beclin 1)	ATP levels at 24 h, in words [1]	further results
acyclolaxaphycin B3 [compound 4]	diminishing ROS release and ATP levels at 6 h	did not display cytotoxicity at any of the concentrations tested	diminishing ROS release	depolarizing the mitochondrial membrane at 10 µM	generated an increase in beclin1 expression		p70 S6 phosphorylation (p70 S6 kinase): 53.5%–78.6%
[des-(Ala^4-Hle^5)] acyclolaxaphycin B [compound 5]	levels were reduced by 5 after a 6 h incubation	did not show effects on cell survival	reduced ROS levels at the highest concentrations	depolarized the mitochondria	generated an increase in beclin1 expression	recovered at 24 h	Cell metabolic activity (MTT), in words [5]: increased cell metabolic activity
c1cc(-c2cnn3cc(-c4ccc(OCCN5CCCCC5)cc4)cnc23)ccn1 [Comp C, compound C, reference compound]							AMPK activation (phospho/total), in words (AMPK): inhibited kinase activity
[des-(Ala^4-Hle^5)] acyclolaxaphycin B3 [compound 6]	reduced ATP content at 6 h	did not show effects on cell survival	decreased ROS release		generated an increase in beclin1 expression	recovering it after 24 h	p70 S6 phosphorylation (p70 S6 kinase): 53.5%–78.6%; AMPK activation (phospho/total), in words (AMPK): the most active
acyclolaxaphycin B [compound 3]	reduction in ATP was observed at 6 h	did not display cytotoxicity at any of the concentrations tested	reduced ROS and ATP levels at the highest concentrations	produced a decrease in ∆Ψm	generated an increase in beclin1 expression	recovered at 24 h, reaching levels of control cells	Cell metabolic activity (MTT), in words [5]: significantly augmented cell metabolic activity at 0.1 and 1 µM
CN[C@@H]1C[C@H]2O[C@@](C)([C@@H]1OC)n1c3ccccc3c3c4c(c5c6ccccc6n2c5c31)C(=O)NC4 [STS, staurosporine, reference compound]							Apoptotic cells (early and late, Annexin V positive) [6]: 63.3% ± 3.2%; Caspase 3 activity (caspase 3): 157.8% ± 6%
CO/C1=C\C(C)=C\[C@@H](C)[C@@H](O)[C@@H](C)C/C(C)=C/C=C/[C@H](OC)[C@@H]([C@@H](C)[C@@H](O)[C@H](C)[C@@]2(O)C[C@@H](O)[C@H](C)[C@@H](C(C)C)O2)OC1=O [Baf A1, Bafilomycin A1]							LC3II/I ratio, in words (LC3): increased LC3II/I ratio
CO[C@H]1C[C@@H]2CC[C@@H](C)[C@@](O)(O2)C(=O)C(=O)N2CCCC[C@H]2C(=O)O[C@H]([C@H](C)C[C@@H]2CC[C@@H](O)[C@H](OC)C2)CC(=O)[C@H](C)/C=C(\C)[C@@H](O)[C@@H](OC)C(=O)[C@H](C)C[C@H](C)/C=C/C=C/C=C/1C [Rap, rapamycin, reference compound]					augmented its expression		LC3II/I ratio, in words (LC3): increased LC3II/I ratio; mTOR activation (phospho/total), in words (mTOR): reduced mTOR activation
